Laboratory results reported in US6376546B1, “Biphenyl-5-alkanoic acid derivatives and use thereof” (Asahi Kasei Kabushiki Kaisha, priority 1997, dated 2002).

Columns and labels:
[1] = test system: anti-OVA-IgE antibody production; assay: Suppressive effect on mouse in vivo anti-OVA-IgE antibody production; details: po, 336 h, BALB/c mice immunized with OVA on aluminium hydroxide gel, 100 mg/kg orally once a day for 5 days, serum on day 14, PCA reaction in Wistar rats, read-out: Suppressive rate for IgE antibody production (%)
Method: BALB/c mice, female, 7 weeks old, 7 mice in a group, and 9-11 mice in control group, were used for tests.
Suppressive effect of the compound of the present invention on IgE antibody production was evaluated according to a method described in the reference, Levin and Vaz, International Archives of Allergy and Applied Immunology, 39: 156, 1970. Immunization was performed by intraperitoneally administering aluminium hydroxide gel (4 mg, PIERCE Inc.) adsorbed with egg albumin (OVA; Sigma Inc.) 10 μg in mice. Test compounds were suspended or dissolved in water containing 0.5% carboxymethyl cellulose, and administered orally to test animals, 100 mg/kg, immediately after immunization, once a day for 5 days. Water containing 0.5% carboxymethyl cellulose without addition of test compound was administered to the control group.
On day 14 after the immunization, blood was collected, and passive cutaneous anaphylaxis (PCA) reaction was performed according to the method described in the reference, Ovary et al. International Archives of Allergy and Applied Immunology, 48: 16, 1975, to determine the antibody production. Serum 0.1 ml, which was serially twofold diluted with physiological saline, was injected intracutaneously in the back of Wistar rats, male, 8 weeks old. After 24 hours, 0.5% Evans blue physiological saline solution, which contains OVA 2 mg, 1 ml was injected intravenously to determine the serum boundary concentration of pigment infiltration.
Suppressive rate for IgE antibody production is determined by the following equation.
Suppressive rate for IgE antibody production (%) [formula]

[2] = test system: immediate type allergic foot-pad reaction; assay: Suppression of mouse in vivo foot-pad reaction; details: BALB/c mice immunized by egg albumin; oral 3-100 mg/kg once a day for 5 days; compared with the positive control
Method: BALB/c mice, female, 7 weeks old, 5 mice in a group for test group and 12-14 mice for control group were used for tests.
Effect of the compounds of the present invention on suppression of mouse in vivo foot-pad reaction is evaluated by the following method.
Mice were immunized by administering intraperitoneally 4 mg of aluminium hydroxide gel, which was adsorbed with OVA 5 μg. Test compounds were suspended or dissolved in water containing 0.5% carboxymethyl cellulose, and were administered to test animals orally at 3-100 mg/kg, once a day, for 5 days, from immediately after immunization. For control groups, water containing 0.5% carboxymethyl cellulose without addition of the test compound was administered.
After 10 days of immunization, OVA 10 μg was injected into the hindlim pads of mice to induce immediate type allergic foot-pad reaction. Control groups were divided into tow groups. The one was injected OVA to induce allergic foot-pad reaction for positive control, and the other was injected physiological saline for negative control. After 30 minutes, foot-pad volume of hidlimb of mice was measured by using Plethysmometer (Unicom Co.) to determine increased rate for comparison before induction of foot-pad reaction.
Suppressive rate for foot-pad reaction is obtained by the following equation.
Suppressive rate for foot-pad reaction (%) [formula]
A: increased rate of foot-pad reaction in positive control group,
B: increased rate of foot-pad reaction in negative control group,
C: increased rate of foot-pad reaction in test group (test compound administered group).

**Q.** With `CCCCOc1ccc(CCC(=O)O)cc1-c1ccccc1` [Compound(01), 3-(2-butoxy-1,1′-biphenyl-5-yl)propionic acid] as the compound, how does the inhibition in vivo at 100 mg/kg [1] read?
**A.** 72.3%

**Q.** Which inhibition in vivo at 100 mg/kg [1] does the source give for `CCCCCOc1ccc(CCC(=O)O)cc1-c1ccccc1` [Compound(03), 3-(2-pentyloxy-1,1′-biphenyl-5-yl)propionic Acid] here?
**A.** 50.9%

**Q.** Which results are given for `O=C(O)CCc1ccc(OC2CCCC2)c(-c2ccccc2)c1` [Compound(04), 3-(2-cyclopentyloxy-1,1′-biphenyl-5-yl)propionic Acid]?
**A.** suppressive action against immediate type allergic foot-pad reaction [2]: significant suppressive action; inhibition in vivo at 100 mg/kg [1]: 45.5%

**Q.** How did the “suppressive action against immediate type allergic foot-pad reaction” value (“suppressive action” for short) [2] turn out when `O=C(O)CCc1ccc(OCC2CCCCC2)c(-c2ccccc2)c1` [Compound(07), 3-(2-cyclohexylmethyloxy-1,1′-biphenyl-5-yl)propionic Acid] was run?
**A.** significant suppressive action

**Q.** What about the inhibition in vivo at 100 mg/kg [1] of the same compound?
**A.** 62%

**Q.** `CCC(O)COc1ccc(CCC(=O)O)cc1-c1ccccc1` (centres unmarked) [Compound(08), 3-[2-(2-hydroxybutyloxy)-1,1′-biphenyl-5-yl]propionic acid] was tested. Which inhibition in vivo at 100 mg/kg [1] did it give?
**A.** 58.9%

**Q.** For `O=C(O)CCc1ccc(OCC(=O)O)c(-c2ccccc2)c1` [Compound(12), 3-(2-carboxymethyloxy-1,1′-biphenyl-5-yl)propionic acid], which inhibition in vivo at 100 mg/kg [1] is on record?
**A.** 50.8%

**Q.** For `CCCCOc1c(NC(C)=O)cc(CCC(=O)O)cc1-c1ccccc1` [Compound(15), 3-(3-acetylamino-2-butoxy-1,1′-biphenyl-5-yl)propionic Acid], which inhibition in vivo at 100 mg/kg [1] is on record?
**A.** 64.2%

**Q.** How did the “suppressive action” value [2] turn out when `NC(=O)Nc1cc(CCC(=O)O)cc(-c2ccccc2)c1OCC1CCCCC1` [Compound(22), 3-(3-carbamoylamino-2-cyclohexylmethyloxy-1,1′-biphenyl-5-yl)propionic Acid] was run?
**A.** significant suppressive action

**Q.** And the inhibition in vivo at 100 mg/kg [1]?
**A.** 48.1%

**Q.** What does the source list for `O=C(O)CCc1ccc(OCC2CCCCC2)c(-c2ccc(O)cc2)c1` [Compound(25), 3-(2-cyclohexylmethyloxy-4′-hydroxy-1,1′-biphenyl-5-yl)propionic Acid]?
**A.** suppressive action against immediate type allergic foot-pad reaction [2]: significant suppressive action; inhibition in vivo at 100 mg/kg [1]: 45.5%

**Q.** `CCCCOc1ccc(CCCC(=O)O)cc1-c1ccccc1` [Compound(28), 4-(2-butoxy-1,1′-biphenyl-5-yl)butyric Acid] was tested. Which “suppressive action” value [2] did it give?
**A.** significant suppressive action

**Q.** What about the inhibition in vivo at 100 mg/kg [1] of the same compound?
**A.** 44.5%

**Q.** Which inhibition in vivo at 100 mg/kg [1] does the source give for `CC(C)COc1ccc(CCCC(=O)O)cc1-c1ccccc1` [Compound(29), 4-(2-isobutoxy-1,1′-biphenyl-5-yl)butyric Acid] here?
**A.** 55.7%

**Q.** Which inhibition in vivo at 100 mg/kg [1] does the source give for `CCCCCOc1ccc(CCCC(=O)O)cc1-c1ccccc1` [Compound(31), 4-(2-pentyloxy-1,1′-biphenyl-5-yl)butyric Acid] here?
**A.** 49.8%

**Q.** Which results are given for `O=C(O)CCCc1ccc(OCC(=O)O)c(-c2ccccc2)c1` [Compound(44), 4-(2-carboxymethyloxy-1,1′-biphenyl-5-yl)butyric Acid]?
**A.** suppressive action against immediate type allergic foot-pad reaction [2]: significant suppressive action; inhibition in vivo at 100 mg/kg [1]: 71.5%

**Q.** How did the inhibition in vivo at 100 mg/kg [1] turn out when `O=C(O)CCCc1ccc(OCCC(=O)O)c(-c2ccccc2)c1` [Compound(45), 4-[2-(2-carboxyethyloxy)-1,1′-biphenyl-5-yl]butyric Acid] was run?
**A.** 57%

**Q.** Which inhibition in vivo at 100 mg/kg [1] does the source give for `O=C(O)CCCOc1ccc(CCCC(=O)O)cc1-c1ccccc1` [Compound(46), 4-[2-(3-carboxypropyloxy)-1,1′-biphenyl-5-yl]butyric Acid] here?
**A.** 64.6%

**Q.** Which “suppressive action” value [2] does the source give for `NC(=O)COc1ccc(CCCC(=O)O)cc1-c1ccccc1` [Compound(47), 4-(2-carbamoylmethyloxy-1,1′-biphenyl-5-yl)butyric Acid] here?
**A.** significant suppressive action

**Q.** What about the inhibition in vivo at 100 mg/kg [1] of the same compound?
**A.** 65.7%

**Q.** For `CCCCOc1c(NC(C)=O)cc(CCCC(=O)O)cc1-c1ccccc1` [Compound(52), 4-(3-acetylamino-2-butoxy-1,1′-biphenyl-5-yl)butyric Acid], which inhibition in vivo at 100 mg/kg [1] is on record?
**A.** 64.2%

**Q.** Which results are given for `CCCCOc1ccc(CCCC(N)=O)cc1-c1ccccc1` [Compound(55), 4-(2-butoxy-1,1′-biphenyl-5-yl)butyramide]?
**A.** suppressive action against immediate type allergic foot-pad reaction [2]: significant suppressive action; inhibition in vivo at 100 mg/kg [1]: 55.7%

**Q.** Which inhibition in vivo at 100 mg/kg [1] does the source give for `COc1ccc(CCC(=O)O)cc1-c1ccccc1` [Control(1), 3-(2-methoxy-1,1′-biphenyl-5-yl)propionic acid, reference compound] here?
**A.** -14.4%

**Q.** `C=CCOc1ccc(-c2cc(CCC(=O)OC)ccc2OCc2ccccc2)cc1` [Control(2), Methyl 3-(4′-allyloxy-2-benzyloxy-1,1′-biphenyl-5-yl)propionate, reference compound] was tested. Which inhibition in vivo at 100 mg/kg [1] did it give?
**A.** -11.6%

**Q.** Which inhibition in vivo at 100 mg/kg [1] does the source give for `CC1(C)CCC(C)(C)c2cc(COc3ccc(C(=O)O)cc3-c3ccccc3)ccc21` [Control(3), [2-(5,6,7,8-tetrahydro-5,5,8,8-tetramethyl-2-naphthalenyl)methyloxy-1,1′-biphenyl-5-yl]carboxylic acid, reference compound] here?
**A.** -2.8%

**Q.** With `CC1(C)CCC(C)(C)c2cc(COc3cccc(CCC(=O)O)c3-c3cccc(C(=O)O)c3)ccc21` [Control(4), 3-[3′-carboxy-2-(5,6,7,8-tetrahydro-5,5,8,8-tetramethyl-2-naphthalenyl)methyloxy-1,1′-biphenyl-6-yl]propionic acid, reference compound] as the compound, how does the inhibition in vivo at 100 mg/kg [1] read?
**A.** -8.4%

**Q.** With `CCCCOc1ccc(CCCC(=O)NCC)cc1-c1ccccc1` [Control(5), N-ethyl-4-(2-butoxy-1,1′-biphenyl-5-yl)butyramide, reference compound] as the compound, how does the inhibition in vivo at 100 mg/kg [1] read?
**A.** -2.5%

**Q.** For `CCCCOc1ccc(-c2ccccc2)cc1CCCC(=O)O` [Control(6), 4-(4-butoxy-1,1′-biphenyl-3-yl)butyric acid, reference compound], which inhibition in vivo at 100 mg/kg [1] is on record?
**A.** 7.3%
